Laboratory results as given in patent US20240317734A1, “BI-FUNCTIONAL COMPOUNDS AND METHODS FOR TARGETED UBIQUITINATION OF ANDROGEN RECEPTOR” (MONTELINO THERAPEUTICS, INC., priority 2021, published 2024).

The compounds below were run on 22Rv1-Enz^R (assay: 22Rv1-Enz^R cell proliferation assay). Conditions: human prostate cancer cell line 22Rv1-Enz^R; 6-day culture, cell media changed every 24 hours; half maximal growth inhibition constant; read-out: 22Rv1-Enz^R proliferation assay GIC50.
Assay type: cell-based
Protocol: The human prostate cancer cell line, 22Rv1 has been reported to express a high level of AR-V7. According to one procedure, 22Rv1 is seeded at 50,000 cells/well on a 24-well plate in quadruplicate and treated with test compounds in concentrations ranging up to 20 μM for four days. Standard culture media is RPMI-1640 supplemented with 10% fetal bovine serum. The test compound initially is dissolved in DMSO at 50 mM. This stock solution is then diluted as needed for the indicated concentrations. At the end of the four-day period, cells are harvested using 1% trypsin and counted using an automated cell counter.
Cell Culture. Human CaP cell lines, LNCaP, 22Rv1, VCaP, PC3, and DU145 are obtained from the American Type Culture Collection (ATCC) and maintained in the standard culture media: RPMI-1640 supplemented with 10% fetal bovine serum (FBS). LNCaP, 22Rv1, and VCaP are androgen-responsive cell lines, while PC3 and DU145 are not. To establish SAT resistant CaP cell lines, LNCaP, 22Rv1, and VCaP are treated continuously with 10-50 μM abiraterone, apalutamide, darolutamide, or enzalutamide. After 3-6 months, stable cell lines are established and designated as LNCaP-Abi^R, LNCaP-Apa^R, LNCap-Daro^R, LNcaP-Enz^R, VcaP-Abi^R, VCaP-Apa^R, VCaP-Daro^R, VCaP-Enz^R, 22Rv1-Abi^R, 22Rv1-Apa^R, 22Rv1-Daro^R, and 22Rv1-Enz^R. Unless otherwise specified, the standard culture media for these SAT-resistant cell lines included 10 μM of their respective SAT. For the proteasome inhibitor study, the inhibitors MG132 and Epoxomicin are used. The E3 ligase inhibitors Heclin, Nutlin 3a, Thalidomide, and VH298 are used. Cell lines obtained from ATCC are confirmed by checking their morphology using optical microscopy, establishing baselines for cell proliferation, verifying species of origin using isoenzymology, and characterizing the cell's DNA fingerprint using short tandem repeat (STR) profiling. Mycoplasma contamination is also assessed using a PCR based detection system.
Selected compounds may be tested in the human prostate cancer cell line, 22Rv1-Enz^R, as described in Geun Tack Lee et al., Molecular Cancer Therapeutics, 20:490-9 (2021). These procedures are similar to that described in Experimental Example 1, above, except that the assay conditions are a 6-day culture with cell media changed every 24 hours.
In the case of `O=C(COc1c(-c2csc(N3CCOCC3)n2)ccc(F)c1F)NCCCCNc1ccc2nnn(C3CCC(=O)NC3=O)c(=O)c2c1` (stereo not shown) [Example 1, 2-(2,3-difluoro-6-(2-morpholinothiazol-4-yl)phenoxy)-N-(4-((3-(2,6-dioxopiperidin-3-yl)-4-oxo-3,4-dihydrobenzo[d][1,2,3]triazin-6-yl)amino)butyl)acetamide], the IC50 is reported as < 100 µM.
`O=C(COc1c(-c2csc(N3CCOCC3)n2)ccc(F)c1F)NCCCCCCNc1ccc2nnn(C3CCC(=O)NC3=O)c(=O)c2c1` (stereo not shown) [Example 2, 2-(2,3-difluoro-6-(2-morpholinothiazol-4-yl)phenoxy)-N-(6-((3-(2,6-dioxopiperidin-3-yl)-4-oxo-3,4-dihydrobenzo[d][1,2,3]triazin-6-yl)amino)hexyl)acetamide] was tested, and the IC50 was < 10 µM.
With `O=C1CCC(n2nnc3ccc(NCCOCCOCCOc4c(-c5csc(N6CCOCC6)n5)ccc(F)c4F)cc3c2=O)C(=O)N1` (stereo not shown) [Example 3, 3-(6-((2-(2-(2-(2,3-difluoro-6-(2-morpholinothiazol-4-yl)phenoxy)ethoxy)ethoxy)ethyl)amino)-4-oxobenzo[d][1,2,3]triazin-3(4H)-yl)piperidine-2,6-dione] the IC50 was < 100 µM.
In the case of `O=C(COc1c(-c2csc(N3CCOCC3)n2)ccc(F)c1F)NCCCCCCCCCCNc1ccc2nnn(C3CCC(=O)NC3=O)c(=O)c2c1` (stereo not shown) [Example 4, 2-(2,3-difluoro-6-(2-morpholinothiazol-4-yl)phenoxy)-N-(10-((3-(2,6-dioxopiperidin-3-yl)-4-oxo-3,4-dihydrobenzo[d][1,2,3]triazin-6-yl)amino)decyl)acetamide], the IC50 is reported as < 10 µM.
